Key:
[1] = system: ERK, JNK, p38MAPK in differentiated HaCaT cells; test: IMQ-induced MAPK phosphorylation, western blot; assay type: cell-based; conditions: PLAG 1, 10, 100 μg/ml, dose-dependent
Procedure: Differentiated HaCaT cells were divided into three groups: 1) control (non-treated) group, 2) IMQ treated group, and 3) IMQ/PLAG treated group. For IMQ treated group, cells were stimulated with IMQ (5 μg/ml) for 0, 20, 60 minutes. For IMQ/PLAG treated group, cells were pre-incubated with PLAG (1, 10, 100 μg/ml) for 1 hour and then stimulated with IMQ (5 μg/ml) for an hour. Then, cells were harvested. Cells were ruptured with 1×RIPA lysis buffer (Cell Signaling Technology) containing the protease inhibitor (Roche, Indianapolis, Ind., USA), and phosphatase inhibitor (Thermo Fisher Scientific Inc.) on ice. The cell lysates were then clarified by centrifugation and samples were analyzed on polyacrylamide gels. Each sample was separated by sodium dodecyl sulfate-polyacrylamide gel electrophoresis (SDS-PAGE) on polyacrylamide gels and the proteins were blotted onto a PVDF membrane (Bio-Rad). The membrane was blocked with 5% BSA (Gibco) in PBS containing 0.05% Tween-20 (Merck Millipore, Billerica, Mass., USA). The membrane was incubated with antibodies against phosphor-ERK (Thr202/Tyr204), ERK, phosphor-JNK (Thr183/Tyr185), SAPK/JNK, phosphor-p38MAPK (Thr180/thr182), and p38MAPK, overnight at 4° C. All antibodies were purchased from Cell signaling technology. Target proteins were detected with Immobilon Western Chemiluminescent HRP Substrate (Merck Millipore).

[2] = system: RIPK1, RIPK3, MLKL in THP-1 cells; test: MSU-induced phosphorylation of RIPK1, RIPK3, MLKL, western blot; assay type: cell-based, human
Procedure: (A) THP-1 cells were pre-incubated with PLAG (100 μg/mL) for an hour and then stimulated with MSU crystal (400 μg/mL). After 0, 7, 15, 30, 60 minutes, cells were harvested. (B) THP-1 cells were pre-incubated with PLAG (1, 10, 100 μg/mL) for 1 hour and then stimulated with MSU crystal (400 μg/mL). After 1 h, cells were harvested. THP-1 cells were lysis with 1×RIPA lysis buffer containing the protease inhibitor (Roche, Basel, Switzerland) and phosphatase inhibitor (Thermo Scientific, MA, USA) on ice for 30 min. The cell lysates were clarified by centrifugation (13,000 rpm, 4° C., 30 min), and the protein quantity from each sample was examined by Bradford assay (Bio-Rad). Proteins from each sample were separated by sodium dodecyl sulfate-polyacrylamide gel electrophoresis on 12% polyacrylamide gels and the proteins were blotted onto a PVDF membrane (Millipore Corporation, Germany). The membrane was blocked with 5% non-fat dried milk (BD bioscience) in PBS containing 0.05% Tween-20 (Calbiochem) for 1 hour. The membrane was incubated with anti-phospho-RIPK3 (abcam), RIPK3 (novusbio), p-MLKL (abcam), MLKL (Sigma), p-RIP (Cell Signaling Technology), RIPK1 (R&D System) and β-actin (Cell Signaling Technology) at 4° C. overnight. […] Target proteins were detected with Immobilon Western Chemiluminescent HRP Substrate (Millipore Corporation).

[3] = system: NET formation of neutrophil, BALF derived cells; test: NETosis of PAK-introduced BALF derived cells; assay type: cell-based, mice; conditions: PAK/PLAG vs PAK
Procedure: 2 hours after PAK infection, BALF derived cells were harvested and detected extracellular DNA-elastase complex by using ELISA and visualized by using confocal microscopy (×400) or scanning electron microscope (SEM) (×8000). […] were washed with PBS and mounted in DAPI-containing fluorescence microscopy mounting medium (Invitrogen). Samples were analyzed with a laser scanning confocal microscope (Carl Zeiss, Oberkochen, Germany).

[4] = system: total body irradiation by γ-ray; test: Survival rate and body weight of γ-ray radiated mice; assay type: in vivo
Procedure: 11 weeks Balb/c mice (10 males and 10 females) were divided into two groups: 1) radiated group (6.5Gy of TBI by γ-ray) and 2) PLAG (250 mg/kg of PLAG) administrated group with radiation (6.5Gy of TBI by γ-ray) (FIG. 39A). 6.5Gy of TBI was radiated on Day 0 and 250 mpk of PLAG was orally administrated from day 0 to day 30 daily. The survival rate of the mice was recorded daily until day 30.
(§1) 11 weeks Balb/c mice (10 males and 10 females) were divided into four groups: 1) radiated group (6.11Gy of TBI by γ-ray), 2) PLAG (10 mg/kg of PLAG) administrated group with radiation (6.11Gy of TBI by γ-ray), 3) PLAG (50 mg/kg of PLAG) administrated group with radiation (6.11Gy of TBI by γ-ray), and 4) PLAG (250 mg/kg of PLAG) administrated group with radiation (6.11Gy of TBI by γ-ray) (FIG. 40A). 6.11Gy of TBI was radiated on Day 0 and […] of PLAG was orally administrated from day 1 to day 30 daily. The survival rate of the mice, was recorded daily until day 30.
as §1, with “by γ-ray).” for “by γ-ray) (FIG. 40A).”, “Day 0,” for “Day 0”, “daily. Body weight” for “daily. The survival rate”, “the mice” for “the mice,”

CCCCC/C=C\C/C=C\CCCCCCCC(=O)OC(COC(C)=O)COC(=O)CCCCCCCCCCCCCCC (racemic) [PLAG, 1-palmitoyl-2-linoleoyl-3-acetylglycerol]
IMQ-induced phosphorylation of ERK, JNK, p38 MAPK [1]: attenuated
MSU-induced phosphorylation of RIPK3 and MLKL ([2]; PLAG 100 μg/mL, time course): accelerated
MSU-induced phosphorylation of RIPK1 and RIPK3 ([2]; PLAG 1, 10, 100 μg/mL, dose-dependent): modulated
NET formation of neutrophil [3]: accelerated
number of mice whose body weight loss is more than 10% and 20% ([4]; 6.11Gy TBI, 50mpk and 250 mpk): significantly less number
body weight after radiation ([4]; 6.11Gy TBI, PLAG 10 mg/kg): fluctuating and decreasing bodyweight
survival rate after 30 days of radiation ([4]; 6.11Gy TBI, PLAG 10 mg/kg): 5%
body weight loss ([4]; 6.11Gy TBI, PLAG 50 mg/kg): less than 10%
survival rate after 30 days of radiation ([4]; 6.11Gy TBI, PLAG 50 mg/kg): 40%
body weight loss ([4]; 6.11Gy TBI, PLAG 250 mg/kg): less than 10%
survival rate after 30 days of radiation ([4]; 6.11Gy TBI, PLAG 250 mg/kg): 80%
survival rate relative to the radiated group ([4]; 6.5Gy TBI, PLAG 250 mg/kg): 12 times
survival rate 30 days after radiation ([4]; 6.5Gy TBI, PLAG 250 mg/kg daily day 0-30): 60%

Source: US20220339135A1, “COMPOSITIONS AND METHODS FOR MODULATING AN INFLAMMATORY RESPONSE” (Enzychem Lifesciences Corporation, priority 2019, published 2022)
